Entries after “also recorded” stand apart in the source; their conditions may differ. Read-outs that look alike come from different tables or passages of the source. Values belong to the molecule of their own block, whether it stands above or below them.
Columns and labels:
WT mouse aorta = experiment: Force-tension myography, ACH dependent vasorelaxation of phenylephrine pre-constricted WT aortic rings; type: cell-based
From the text: (§1) Animals: Age-matched IL-10 deficient (IL-10(tm/tm)); B6.129P2IL10tm1Cgn/J and control mice (C576L6; WT) were obtained from Jackson Laboratories (Bar Harbor, Me., USA). IL-10(tm/tm) mice used are homozygous for the IL10tm1Cgn targeted mutation. These mice were housed in Association for Assessment and Accreditation of Laboratory Animal Care International accredited facilities and pathogen contact prevention (prophylaxis from infections, inflammatory bowel disease and early mortality) was achieved under specific pathogen-free (SPF) barrier conditions until terminal experiments were carried out. It is known that the pro-inflammatory potential achieved by the lack of IL-10 in this mouse model can be attributed to activation of TNF-α and IL-1β synthesis via IFN-γ, which is produced in massive amounts and also is important inantigen presentation and pathogen death via activation of macrophages. Animals with any signs of inflammatory/infectious disease were ruled out of the study. The study was performed at approximately 3-4 months (young) and 9 months of age or greater (old).
(§2) Vascular endothelial function was assessed using force-tension myography. Mouse aortas were isolated and cleaned in ice-cold Krebs-Ringer-bicarbonate solution containing the following (in mM): 118.3 NaCI, 4.7 KCI, 1.6 CaCl2, 1.2 KH2 PO4, 25 NaHCO3, 1.2 MgSO4, and 11.1 dextrose. Vascular tension changes were determined as previously described (J Appl Physiol, 2000. 89(6): p. 2382-90). Briefly, one end of the aortic rings was connected to a transducer, and the other to a micromanipulator. The aorta was immersed in a bath filled with constantly oxygenated Krebs buffer at 37° C. Equal size thoracic aortic rings (2 mm) were mounted using a microscope, ensuring no damage to the smooth muscle or endothelium. The aortas were passively stretched to an optimal resting tension using the micromanipulator, after which a dose of 60 mM KCI was administered, and repeated after a wash with Krebs buffer. After these washes, the vessels were allowed to equilibrate for 20-30 min. Phenylephrine (1 μM) was administered to induce vasoconstriction. A dose-dependent response (1 nM to 10 μM), with the muscarinic agonist, ACH, was then performed. The responses were repeated in the presence of inhibitors. Relaxation responses were calculated as a percentage of tension following pre-constriction. Sigmoidal dose-response curves were fitted to data with the minimum constrained to 0.
(§3) Vascular Studies. In ex vivo myograph experiments, measured tension represents a balance between vasorelaxant and vasoconstrictor dependent function and mediators. In phenylephrine pre-constricted isolated mouse aorta, ACH stimulates the release of endothelial factors, which mediate vasorelaxation as a result of greater relaxation than constriction.

IL-10(tm/tm) mouse aorta = experiment: Force-tension myography, ACH dependent vasorelaxation of phenylephrine pre-constricted IL-10(tm/tm) aortic rings; type: cell-based; details: for EC50 / Emax: Mus musculus; for Effect on endothelial dependent vasorelaxation / Effect on vasoconstrictive responses to ACH: old IL-10(tm/tm) aortas
From the text: as §1, §2, §3

[1] = pre-incubation with 5 μM nimesulide
[2] = pre-incubation with 100 nM SQ29548
[3] = pre-incubation with 3 μM indomethacin

EC50 (WT mouse aorta; old WT mice aortas, n=6, read-out: EC50 of ACH mediated vasorelaxation): 251 nM
EC50 (WT mouse aorta; young WT mice aortas, phenylephrine pre-constricted, read-out: EC50 of ACH dose response (vasorelaxation)): 126 nM
EC50 (IL-10(tm/tm) mouse aorta; old IL-10(tm/tm) mice aortas, n=6, read-out: EC50 of ACH mediated vasorelaxation): 39.4 nM
EC50 (IL-10(tm/tm) mouse aorta; young IL-10(tm/tm) mice aortas, phenylephrine pre-constricted, read-out: EC50 of ACH dose response (vasorelaxation)): 50.1 nM
SMILES: CC(=O)OCC[N+](C)(C)C [ACH, Acetylcholine]
Emax (WT mouse aorta; old WT mice aortas, n=6, read-out: Emax of ACH mediated vasorelaxation): 98.5 ± 14.1%
Emax (WT mouse aorta; young WT mice aortas, phenylephrine pre-constricted, read-out: Emax of ACH dose response (vasorelaxation)): 80.9 ± 4.6%
Emax (IL-10(tm/tm) mouse aorta; old IL-10(tm/tm) mice aortas, n=6, read-out: Emax of ACH mediated vasorelaxation): 30.7 ± 9.3%
Emax (IL-10(tm/tm) mouse aorta; young IL-10(tm/tm) mice aortas, phenylephrine pre-constricted, read-out: Emax of ACH dose response (vasorelaxation)): 71.9 ± 5.7%

SMILES: CS(=O)(=O)Nc1ccc([N+](=O)[O-])cc1Oc1ccccc1 [nimesulide]
Effect on endothelial dependent vasorelaxation (IL-10(tm/tm) mouse aorta; [1]): enhanced endothelial dependent vasorelaxation; also recorded: significantly improved endothelial dependent vasorelaxation
Effect on vasoconstrictive responses to ACH (IL-10(tm/tm) mouse aorta; [1]): abolished the vasoconstrictive responses

SMILES: O=C(O)CCC/C=C\C[C@@H]1[C@H](CNNC(=O)Nc2ccccc2)[C@H]2CC[C@@H]1O2 [SQ29548]
Effect on endothelial dependent vasorelaxation (IL-10(tm/tm) mouse aorta; [2]): enhanced endothelial dependent vasorelaxation; also recorded: significantly improved endothelial dependent vasorelaxation
Effect on vasoconstrictive responses to ACH (IL-10(tm/tm) mouse aorta; [2]): abolished the vasoconstrictive responses

SMILES: COc1ccc2c(c1)c(CC(=O)O)c(C)n2C(=O)c1ccc(Cl)cc1 [indomethacin]
Effect on endothelial dependent vasorelaxation (IL-10(tm/tm) mouse aorta; [3]): significantly improved endothelial dependent vasorelaxation
Effect on vasoconstrictive responses to ACH (IL-10(tm/tm) mouse aorta; [3]): abolished the vasoconstrictive responses

Reference: patent US20130121961A1, “TREATMENT MODALITIES TO PREVENT OR TREAT LOSS OF CARDIOVASCULAR FUNCTION IN AGING HUMANS” (THE JOHNS HOPKINS UNIVERSITY, priority 2011, published 2013)
